The source of these data is PMC8238520, “Co-ordinated control of the Aurora B abscission checkpoint by PKCε complex assembly, midbody recruitment and retention” (Biochemical Journal, 2021).

Common to all, as to assay type: cell-based
Test [1] has as its system GFP-PKCε-C259A in HEK293T cells. The test is described as follows: Midbody recruitment of GFP-PKCε-C259A (C1B mutant), immunofluorescence. The conditions noted are these: twenty cells with midbodies per condition across three experiments. Here is the method:
(§1) Cells were grown on 13 mm glass coverslips and simultaneously fixed and permeabilized with PHEM-TX buffer (60 mM PIPES (pH 6.8), 25 mM HEPES (pH7.4), 10 mM EGTA (pH 8), 4 mM MgSO4, 4% paraformaldehyde and 0.1% Triton X-100) for 20 min. Cells were then incubated in blocking buffer (3% BSA in PBS) and probed using the following primary antibodies: rabbit Aurora B pS227 (in house, 1 : 100), mouse α-tubulin (in house, 1 : 1000). Primary antibodies were detected using Alexa Fluor-conjugated secondary antibodies (Life Technologies) and were all used diluted in blocking buffer: donkey anti-rabbit Alexa Fluor 647 and goat anti-mouse Alexa Fluor 555. […]
(§2) Figure 2. […] (B) Quantitation of dividing cells with GFP-PKCε and GFP-PKCε-D532N accumulation at the midbody. […] (D) Quantitation of dividing cells with GFP-PKCε, GFP-PKCε-S346A-S368A, GFP-PKCε-D532N or GFP-PKCε-D532N-S346A-S368A accumulation at the midbody. […] (F) Quantitation of dividing cells with GFP-PKCε-D532N, GFP-PKCε-D532N-C183A, GFP-PKCε-D532N-C259A or GFP-PKCε-D532N-ΔC2 accumulation at the midbody. […] (G) Quantitation of multinucleate cells upon treatment with non-targeting siRNA (control) or PKCε siRNA, with expression of siRNA-resistant mouse GFP-PKCε, GFP-PKCε-D532N, GFP-PKCε-C183A, GFP-PKCε-C259A or GFP-PKCε-ΔC2. […] Two-hundred cells were counted per condition per experiment. […]

For test [2], the system named is GFP-PKCε (WT) in HEK293T cells. Description: Midbody recruitment of GFP-PKCε (WT), immunofluorescence. The conditions noted are these: cells undergoing cytokinesis, twenty cells with midbodies per condition across three experiments. As for the experimental part:
as §1, §2

The subject of test [3] is GFP-PKCε-C183A in HEK293T cells. The test is described as follows: Midbody recruitment of GFP-PKCε-C183A (C1A mutant), immunofluorescence. As to conditions: twenty cells with midbodies per condition across three experiments. Here is the method: as §1, §2
The subject of test [4] is GFP-PKCε-L223A-K224A-E227A in HEK293T cells. Description: Midbody recruitment of GFP-PKCε-L223A-K224A-E227A (LKE > 3A), immunofluorescence. As to conditions: twenty cells with midbodies per condition across three experiments. Here is the method:
as §1, with “555. All coverslips were mounted using ProLong Gold Diamond with DAPI (Invitrogen). All the static images were acquired using an inverted laser scanning confocal microscope (Carl Zeiss LSM 780) equipped with a 40× Plan-APOCHROMAT DIC oil-immersion objective. Image analysis was carried out using the ZEN analysis software. The variation in expression precluded midbody/cytoplasmic ratio determination as a valid approach to scoring localisation.” for “555.”
Figure 3. […] (C) Quantitation of dividing cells with GFP-PKCε, GFP-PKCε-D532N, GFP-PKCε-D532N-L223A-K224A-E227A, GFP-PKCε-D532N-T228A or GFP-PKCε-D532N-S234A accumulation at the midbody. […]

In test [5] the test system is GFP-PKCε-ΔC2 in HEK293T cells. The test is described as follows: Midbody recruitment of GFP-PKCε-ΔC2, immunofluorescence. As for the experimental part:
as §1, with “555. All coverslips were mounted using ProLong Gold Diamond with DAPI (Invitrogen). All the static images were acquired using an inverted laser scanning confocal microscope (Carl Zeiss LSM 780) equipped with a 40× Plan-APOCHROMAT DIC oil-immersion objective. Image analysis was carried out using the ZEN analysis software. The variation in expression precluded midbody/cytoplasmic ratio determination as a valid approach to scoring localisation.” for “555.”
(§3) I = I0 –I 1e-t/T1 –I 2e-t/T2 (see Methods), for GFP-PKC e M486A expressing HEK293T cells pretreated with NaPP1. Cells were bleached atthe plasma membrane (PM) or midbody(MB)and fluorescence recovery was monitored. […]

In test [6] the test system is GFP-PKCε M486A in HEK293T cells. Description: Fluorescence recovery after photobleaching (FRAP). The conditions noted are these: NaPP1 (4 μM) for 10 min; 37°C. Here is the method:
Live-cell fluorescence recovery after photobleaching (FRAP) experiments were performed using an inverted laser scanning confocal microscope (LSM 510, Carl Zeiss MicroImaging GmbH, Jena, Germany), with fully open pinhole, using a Plan-Apochromat oil-immersion objective (×63, NA 1.4). The microscope was encased inside an environmental polymethylmethacrylate case maintained at a constant temperature of 37°C, while the dishes containing the cells were maintained under a constant 5% CO2 flow. GFP-PKCε M486A cells were incubated with NaPP1 (4 μM) for 10 min. Each FRAP experiment comprised a sequence of 300 frames (128 × 128, pixel dwell time of 6.40 μs, pixel size 0.37 μm) including 10 pre-bleached frames. […] Recovery was monitored by capturing a further 290 scans after the photobleach event. Quantification was performed using the FRAP module included in the LSM software (Carl Zeiss) plotting the graphs to a best fit double exponential model I = I0 − I1e^−t/T^1 − I2e^−t/T^2 where I0 is the intensity before bleach, I1 and I2 are the mobile fractions and T1 and T2 the time constants. […]
as §3

Take `CCCCCCCCCC(=O)OC[C@H](CO)OC(=O)CCCCCCCCC` [DiC10, sn-1,2-didecanoylglycerol]: in test [1] (10 µM diC10, 3 min), the “cells displaying recruitment of C1B mutant to midbody on diC10” value is 0%. Also, the “midbody recruitment of WT PKCε on diC10” value in test [2] (10 µM diC10, 3 min) is recorded as “recruited to the midbody region”. Further, the “cells displaying recruitment of C1A mutant to midbody on diC10” value in test [3] (10 µM diC10, 3 min) is reported as 0%. Besides, the “midbody recruitment of LKE > 3A mutant on diC10” value in test [4] (10 µM diC10, 3 min) is listed as “recruited to the midbody”. For the same compound, the “midbody recruitment of PKCεΔC2 on diC10” value in test [5] (DiC10, data not shown) was “recruited”.
For the compound `CC(C)(C)n1nc(-c2cccc3ccccc23)c2c(N)ncnc21` [NaPP1], the “fast component of FRAP recovery at the midbody compared with the plasma membrane recruited protein” value in test [6] was “considerably slower”.
Regarding `CCCCCCCCCCCCCC(=O)O[C@@H]1[C@@H](C)[C@@]2(O)[C@@H](C=C(CO)C[C@]3(O)C(=O)C(C)=C[C@@H]23)[C@@H]2C(C)(C)[C@]12OC(C)=O` [PMA, phorbol myristate acetate], the “midbody recruitment of C1B mutant (C259A) on PMA” value in test [1] (1 µM PMA, 20 min) is on record as “not recruited”. For the same compound, in test [2] (1 µM PMA, 20 min), the “midbody recruitment of WT PKCε on PMA” value is given as “recruited to the midbody region”. Besides, the “midbody accumulation of C1A mutant (C183A) on PMA” value in test [3] (1 µM PMA, 20 min) is reported as “still promoted midbody accumulation”. The “midbody recruitment of LKE > 3A mutant on PMA” value in test [4] (1 µM PMA, 20 min) is “recruited to the midbody”. Moreover, in test [5] (PMA for 20 minutes, 20 cells per condition across 3 experiments), the “midbody recruitment of PKCεΔC2 on PMA” value is recorded as “recruited”.
